Values quoted from earlier work in US20030232019A1, “Inhalable formulations for sustained release” (Advanced Inhalation Research, Inc., priority 2002, published 2003).

Conditions: healthy volunteers after inhalation

Substance: insulin
- time to half-maximal action (glucose infusion rate): about 30 minutes
